Test in all cases: Bliss excess, mean over the matrix (fraction); higher = more synergy
One assay relates to BPH-1 (Non-Cancerous). In short, it runs like this: (§1)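 Cell lines in DMEM/F12 or RPMI with 10% FBS were plated in 1536-well plates, held 24 hours at 37°C, 5% CO2, then given two-drug dose matrices for 72 hours (DMSO typically 0.2%). Viability was read by CellTiter-Glo 2.0 luminescence and scaled as inhibition from 0 (vehicle wells) to 1 (blank wells). Combination Emax is the second-highest inhibition in the matrix; Bliss excess is observed combination effect minus expected EA + EB − EA·EB, EA and EB being single-agent effects.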

For assay [1], the system named is NCI-H1568 (Lung Adenocarcinoma). In short, it runs like this:
as §1

Assay [2] deals with TGBC1TKB (Biliary Tract Carcinoma). The method, boiled down:
as §1

Assay [3] deals with SW1573 (Lung Adenocarcinoma). The method, boiled down:
as §1

The next assay deals with MPP-89 (Mesothelioma). In short, it runs like this:
as §1

In assay [4] the test system is HuH-7 (Hepatocellular Carcinoma). The method, boiled down: as §1
The next assay relates to GAMG (Glioblastoma). In short, it runs like this: as §1
In another assay the test system is BE2-M17 (Neuroblastoma). The method, boiled down: as §1
In assay [5] the test system is L-428 (Hodgkin's Lymphoma). The method, boiled down:
as §1

Assay [6] concerns NCI-H209 (Small Cell Lung Carcinoma). The method, boiled down:
as §1

Assay [7] deals with ALL-PO (B-Lymphoblastic Leukemia). In short, it runs like this: as §1
Assay [8] deals with OVCAR-5 (Ovarian Carcinoma). In short, it runs like this:
as §1

The next assay deals with NCI-H2722 (Mesothelioma). The method, boiled down: as §1
The test system of assay [9] is SW1710 (Bladder Carcinoma). In short, it runs like this:
as §1

Assay [10] concerns Hs-746T (Gastric Carcinoma). In short, it runs like this: as §1
The subject of assay [11] is LCLC-97TM1 (Non-Small Cell Lung Carcinoma). The method, boiled down:
as §1

The next assay concerns EW-11 (Ewing's Sarcoma). In short, it runs like this:
as §1

The test system of a further assay is A673 (Ewing's Sarcoma). The method, boiled down: as §1
Assay [12] deals with SNU-449 (Hepatocellular Carcinoma). In short, it runs like this: as §1
For assay [13], the system named is ESS-1 (Other Solid Carcinomas). The method, boiled down: as §1

`C[C@@H](c1ccc2nccn2c1)n1nnc2ncc(-c3cnn(C)c3)nc21` [Savolitinib] + CC1(C)CCC(CN2CCN(c3ccc(C(=O)NS(=O)(=O)c4ccc(NCC5CCOCC5)c([N+](=O)[O-])c4)c(Oc4cnc5[nH]ccc5c4)c3)CC2)=C(c2ccc(Cl)cc2)C1 [Venetoclax] (first compound max 1 µM, 7x7, partner max 1 µM): the Bliss excess was -0.0928 in the assay on BPH-1 (Non-Cancerous); -0.0575 in [1]; -0.0122 in assay [2]; -0.0736 in assay [3]; -0.0566 in the assay with MPP-89 (Mesothelioma); -0.0573 in [4]. Besides, the Bliss excess is -0.0257 in the assay with GAMG (Glioblastoma); -0.0656 with BE2-M17 (Neuroblastoma); -0.0284 in assay [5]; -0.0361 in assay [6]; 0.035 in [7]; -0.0597 in [8]. The Bliss excess in the assay with NCI-H2722 (Mesothelioma) was -0.0617; in [9], -0.0561; in [10] it was -0.0105; in [11] it was -0.0427; in the assay on EW-11 (Ewing's Sarcoma), -0.0096; in the assay on A673 (Ewing's Sarcoma), -0.0673. In addition, the Bliss excess is -0.0358 in assay [12] and -0.0241 in assay [13].
For `C[C@@H](c1ccc2nccn2c1)n1nnc2ncc(-c3cnn(C)c3)nc21` [Savolitinib] + Cc1c2c(nn1C)CSCc1cc(n(C)n1)CSc1cc(c3ccccc3c1)OCCCc1c(C(=O)O)n(C)c3c-2c(Cl)ccc13 [AZD5991] (first compound max 1 µM, 7x7, partner max 1 µM), the Bliss excess was -0.0457 with BPH-1 (Non-Cancerous); -0.05 in assay [1]; -0.0238 in [2]; -0.0475 in assay [3]; -0.0423 in the assay with MPP-89 (Mesothelioma); -0.0276 in assay [4]. Moreover, the Bliss excess in the assay on GAMG (Glioblastoma) is -0.0209; with BE2-M17 (Neuroblastoma) it was -0.0285; in assay [5] it was -0.0296; in assay [6], -0.0187; in assay [7] it was -0.0254; in [8], -0.0536. Also, the Bliss excess in the assay on NCI-H2722 (Mesothelioma) was -0.0088; in assay [9] it was -0.0351; in [10], -0.0489; in [11], -0.0311; in the assay with EW-11 (Ewing's Sarcoma), 0.0361; in the assay with A673 (Ewing's Sarcoma), 0.0471. In addition, the Bliss excess in [12] and in assay [13] was -0.0432 each time.

The record behind these values is the supplement of paper PMC11061612.
